In data set [1] the test system is skin. To be noted: topical/therapeutic application; cited from earlier work.
A short description of data set [2]: Degradation of 2-deoxy-D-ribose (hydroxyl radical formation). The settings on record: Table I (Addendum); controls: <0.1; 75 μM compound per method. As to the method:
This assay followed generally the procedures of Gutteridge, J. M. C., "Reactivity of Hydroxyl and Hydroxyl-Like Radicals Discriminated by Release of Thiobarbituric Acid-Reactive Material from Deoxy Sugars, Nucleosides and Benzoate", Biochem. J., 224, 761-767 (1984) and of Laughton, M. J. et al., "Antioxidant and Prooxidant Actions of the Plant Phenolics Quercetin, Gossypol and Myricetin", Biochem. Pharmacol., 38, 2859-2865 (1989). The following reagents were added to glass tubes in the order and at the final concentrations stated. 0.3 ml KH2 PO4 -KOH buffer, pH 7.4 (30 mM), 0.2 ml H2 O bidist., 0.2 ml 2-deoxy-D-ribose (2 mM), 0.2 ml FeCl3 .cndot.6 H2 O (0.1 mM), 0.1 ml anthracenone derivative (75 μM). Stock solutions of the compounds were made up fresh before use. Appropriate blanks and controls with the vehicle (acetonitrile) were conducted. The final reaction volumes were standardized to 1.0 ml. The reaction mixtures were incubated for 2 h at 37° C. in a shaking water bath. 1.0 ml of 2.8% (w/v) trichloroacetic acid and 1.0 ml of 1% (w/v in 0.05 N NaOH) 2-thiobarbituric acid (TBA) were added, and the samples were heated at 100° C. for 15 min and then cooled in an ice bath (5 min). Then 2.0 ml of the reaction mixtures were treated with 0.05 ml of 36% (w/v) HCl and 2.0 ml of 1-butanol and the mixtures were vigorously shaken in a vortex mixer (Heidolph) for 15 s. The organic layer was separated by centrifugation at 3000 rpm (15 min) and the absorbance at 532 nm was measured against butanol. […]
The biological assay methods were as follows: LDH release as described in Muller K, Huang H-S, Wiegrebe W, J. Med. Chem. 39, 3132-3138 (1996); bovine PMNL 5-LO assay as described in Muller K, Gurster D, Piwek S, Wiegrebe W, J. Med. Chem. 36, 4099-4107 (1993); and degradation of 2-deoxy-D-ribose as described in Muller K, Gurster D, Biochem. Pharmacol. 46, 1695-1704 (1993). […] Extracellular LDH activity was measured using the UV method with pyruvate and NADH and is expressly in mU/ml. […]

The values below come from patent US5952390A, “10-substituted 1,8-dihydroxy-9(10H) anthracenone pharmaceuticals” (Teva Pharmaceutical Industries Ltd., priority 1998, dated 1999).

Take `CCCC(=O)C1c2cccc(O)c2C(=O)c2c(O)cccc21` [Butantrone, 10-Butyryl-Dithranol]: the “irritation, in words” value in data set [1] was “commonly elicits a widespread and delayed irritation effect”. Also, the deoxyribose degradation in data set [2] is 0.24 ± 0.03 μmol MDA/mmol.
